Measured values: patent publication EP3254699B1, “SOLID DISPERSION CONTAINING DUTASTERIDE, AND COMPOSITION CONTAINING SAME” (Whanin Pharmaceutical. Co., Ltd., priority 2015, dated 2016)
Like-named read-outs stand apart in the source and are kept apart here.

Assays:
[1] = cited from earlier work
[2] = Solubility of dutasteride: powder suspended in water at the supersaturation concentration of 1 mg/ml, 0.45 um filtering, HPLC; assay type: physicochemical; details: raw material of dutasteride itself, compared in Experimental Example 4
Experimental: Alpha-cyclodextrin, beta-cyclodextrin, gamma-cyclodextrin and hydroxypropyl-beta-cyclodextrin were dissolved in water, respectively, and dutasteride was dissolved in the same amount of ethanol. Then, the two liquids were mixed to form an inclusion complex. In this case, the weight ratio of dutasteride and cyclodextrin was 1:100. The inclusion complex of cyclodextrin and dutasteride in the form of powder was obtained from the mixture solution of ethanol and distilled water through a drying process, followed by suspension in water at the supersaturation concentration of 1 mg/ml. The solubility was measured with HPLC after 0.45 um filtering. The analysis conditions and the result of solubility are as shown below.
• Column: Zobrax SB-Phenyl (150 mm x 3.0 mm, 3.5 um) or a column equivalent thereto • Mobile phase: Mixture liquid of acetonitrile and purified water (55:45, v/v) • Wavelength of detection: UV, 240 nm • Amount of injection: 50 uL • Flow rate: 0.5 mL/min
Gamma-cyclodextrin was dissolved in water, and dutasteride, polyvinyl pyrrolidone and gelucire (macrogol glyceride) were dissolved in the same amount of ethanol. Then, the experiment was performed as in Experimental Example 1 to evaluate the solubility of dutasteride.

C[C@]12C=CC(=O)N[C@@H]1CC[C@@H]1[C@@H]2CC[C@]2(C)[C@@H](C(=O)Nc3cc(C(F)(F)F)ccc3C(F)(F)F)CC[C@@H]12 [dutasteride]
Solubility of dutasteride ([1]; in ethanol): 44 mg/mL
Solubility of dutasteride ([1]; in methanol): 64 mg/mL
Solubility of dutasteride ([1]; in polyethylene glycol 400): 3 mg/mL
Solubility of dutasteride ([1]; in water): poorly soluble
Solubility of dutasteride [2]: not detected
